Assays:
Details in all cases: incubation time: 72 h
HCC1599 [1] = assay: normalised viability (% of control), CellTiter-Blue; higher = more viable cells (about 100 = DMSO control)
How it was run: (§1)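 Each entry is normalised viability at a single listed concentration within a series. It comes from breast cancer cell lines incubated 72 h with compound in 384-well plates, then measured with CellTiter-Blue fluorescence at 560/590 nm. Every plate was normalised between vehicle (100) and a positive kill control (0).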

MDA-MB-468 [2] = assay: as above
How it was run: as §1

CAL-51 [3] = assay: as above
How it was run: as §1

MDA-MB-231 [4] = assay: as above
How it was run: as §1

BT-474 [5] = assay: as above
How it was run: as §1

HCC1143 [6] = assay: as above
How it was run: as §1

DU-4475 [7] = assay: as above
How it was run: as §1

HCC1937 [8] = assay: as above
How it was run: as §1

HDQ-P1 [9] = assay: as above
How it was run: as §1

HCC1599 [10] = assay: drug sensitivity score (DSS), CellTox Green (DSS (AUC-based score)); higher = stronger drug effect (viability inhibition or cytotoxicity); extreme values may be limits of the assay
How it was run: (§2)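 Using 20 µl of cell suspension per well, breast cancer cell lines were seeded into 384-well plates pre-loaded with compound at 5 concentrations in 10-fold steps across a compound-specific 10,000-fold range. Incubation lasted 72 h, after which CellTox Green fluorescence at 485/520 nm and then CellTiter-Glo luminescence, following 10 min at room temperature, were recorded. Each plate was normalised to 0.1 % DMSO and a positive kill control before the drug sensitivity score was derived from the area under the fitted dose-response curve.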

CAL-120 = assay: as above
How it was run: as §2

MDA-MB-468 [11] = assay: as above
How it was run: as §2

MDA-MB-436 = assay: as above
How it was run: as §2

CAL-51 [12] = assay: as above
How it was run: as §2

MDA-MB-231 [13] = assay: as above
How it was run: as §2

BT-474 [14] = assay: as above
How it was run: as §2

HCC1143 [15] = assay: as above
How it was run: as §2

DU-4475 [16] = assay: as above
How it was run: as §2

Hs578T = assay: as above
How it was run: as §2

MDA-MB-453 = assay: as above
How it was run: as §2

HCC1937 [17] = assay: as above
How it was run: as §2

HDQ-P1 [18] = assay: as above
How it was run: as §2

CAL-85-1 = assay: as above
How it was run: as §2

BT-549 = assay: as above
How it was run: as §2

MCF-10A = assay: as above
How it was run: as §2

CC1(C)CCC(c2ccc(Cl)cc2)=C(CN2CCN(c3ccc(C(=O)NS(=O)(=O)c4ccc(N[C@H](CCN5CCOCC5)CSc5ccccc5)c(S(=O)(=O)C(F)(F)F)c4)cc3)CC2)C1 [Navitoclax]
normalised viability (HCC1599 [1]; 10 nM): 94.5% | normalised viability (HCC1599 [1]; 1000 nM): 62.2% | normalised viability (HCC1599 [1]; 10000 nM): 74.7% | normalised viability (MDA-MB-468 [2]; 10 nM): 91.9% | normalised viability (MDA-MB-468 [2]; 1000 nM): 81.6% | normalised viability (MDA-MB-468 [2]; 10000 nM): 71.2% | normalised viability (CAL-51 [3]; 3 nM): 112% | normalised viability (CAL-51 [3]; 30 nM): 104% | normalised viability (CAL-51 [3]; 100 nM): 101% | normalised viability (MDA-MB-231 [4]; 10 nM): 74.7% | normalised viability (MDA-MB-231 [4]; 1000 nM): 55.7% | normalised viability (MDA-MB-231 [4]; 10000 nM): 30.6% | normalised viability (BT-474 [5]; 10 nM): 96.3% | normalised viability (BT-474 [5]; 1000 nM): 95.2% | normalised viability (BT-474 [5]; 10000 nM): 63% | normalised viability (HCC1143 [6]; 10 nM): 71.8% | normalised viability (HCC1143 [6]; 1000 nM): 78.1% | normalised viability (HCC1143 [6]; 10000 nM): 65.3% | normalised viability (DU-4475 [7]; 3 nM): 88.7% | normalised viability (DU-4475 [7]; 30 nM): 72.9% | normalised viability (DU-4475 [7]; 100 nM): 70.3% | normalised viability (HCC1937 [8]; 10 nM): 87.6% | normalised viability (HCC1937 [8]; 1000 nM): 85.8% | normalised viability (HCC1937 [8]; 10000 nM): 85% | normalised viability (HDQ-P1 [9]; 3 nM): 81.4% | normalised viability (HDQ-P1 [9]; 30 nM): 79.7% | normalised viability (HDQ-P1 [9]; 100 nM): 79.3% | drug sensitivity score (HCC1599 [10]): 0 | drug sensitivity score (CAL-120): 10.9 | drug sensitivity score (MDA-MB-468 [11]): 6.68 | drug sensitivity score (MDA-MB-436): 0 | drug sensitivity score (CAL-51 [12]): 8.56 | drug sensitivity score (MDA-MB-231 [13]): 21.5 | drug sensitivity score (BT-474 [14]): 2.28 | drug sensitivity score (HCC1143 [15]): 0 | drug sensitivity score (DU-4475 [16]): 0 | drug sensitivity score (Hs578T): 0 | drug sensitivity score (MDA-MB-453): 0 | drug sensitivity score (HCC1937 [17]): 0 | drug sensitivity score (HDQ-P1 [18]): 17.2 | drug sensitivity score (CAL-85-1): 3.45 | drug sensitivity score (BT-549): 0

C=CCN(/C=C1/C(=O)O[C@H](COC)[C@@]2(C)C1=C(O)C(=O)C1=C2[C@H](OC(C)=O)C[C@]2(C)C(=O)CC[C@@H]12)CC=C [PX-866]
normalised viability (HCC1599 [1]; 10 nM): 98.3% | normalised viability (HCC1599 [1]; 1000 nM): 105% | normalised viability (HCC1599 [1]; 10000 nM): 78.3% | normalised viability (MDA-MB-468 [2]; 10 nM): 112% | normalised viability (MDA-MB-468 [2]; 1000 nM): 62.7% | normalised viability (MDA-MB-468 [2]; 10000 nM): 21.9% | normalised viability (CAL-51 [3]; 3 nM): 118% | normalised viability (CAL-51 [3]; 30 nM): 107% | normalised viability (CAL-51 [3]; 100 nM): 103% | normalised viability (MDA-MB-231 [4]; 10 nM): 92.9% | normalised viability (MDA-MB-231 [4]; 1000 nM): 72.6% | normalised viability (MDA-MB-231 [4]; 10000 nM): 50% | normalised viability (BT-474 [5]; 10 nM): 118% | normalised viability (BT-474 [5]; 1000 nM): 87.3% | normalised viability (BT-474 [5]; 10000 nM): 41.9% | normalised viability (HCC1143 [6]; 10 nM): 91.6% | normalised viability (HCC1143 [6]; 1000 nM): 80.8% | normalised viability (HCC1143 [6]; 10000 nM): 60.8% | normalised viability (DU-4475 [7]; 3 nM): 109% | normalised viability (DU-4475 [7]; 30 nM): 96.1% | normalised viability (DU-4475 [7]; 100 nM): 92.7% | normalised viability (HCC1937 [8]; 10 nM): 106% | normalised viability (HCC1937 [8]; 1000 nM): 73.6% | normalised viability (HCC1937 [8]; 10000 nM): 59.7% | normalised viability (HDQ-P1 [9]; 3 nM): 113% | normalised viability (HDQ-P1 [9]; 30 nM): 128% | normalised viability (HDQ-P1 [9]; 100 nM): 114%

CC[C@H](CO)Nc1nc(NCc2ccccc2)c2ncn(C(C)C)c2n1 [Seliciclib]
drug sensitivity score (HCC1599 [10]): 0 | drug sensitivity score (CAL-120): 0 | drug sensitivity score (MDA-MB-468 [11]): 0 | drug sensitivity score (MDA-MB-436): 0 | drug sensitivity score (CAL-51 [12]): 0 | drug sensitivity score (MDA-MB-231 [13]): 0 | drug sensitivity score (MCF-10A): 0 | drug sensitivity score (BT-474 [14]): 0 | drug sensitivity score (HCC1143 [15]): 0 | drug sensitivity score (DU-4475 [16]): 0 | drug sensitivity score (Hs578T): 1.26 | drug sensitivity score (MDA-MB-453): 0 | drug sensitivity score (HCC1937 [17]): 0 | drug sensitivity score (HDQ-P1 [18]): 0 | drug sensitivity score (CAL-85-1): 0 | drug sensitivity score (BT-549): 0

Reference: the supplement of paper PMC4862054
